The source of these data is PubChem BioAssay (NCI).

Common to all, as to experiment: growth of human tumour cells (NCI), 48 h
The subject of assay [1] is NCI-H460 lung.
Assay [2] relates to M14 melanoma.
The subject of assay [3] is MDA-MB-231 breast.
Assay [4] concerns SK-MEL-28 melanoma.
In assay [5] the test system is KM12 colon.
Assay [6] has as its system SF-539 CNS.
Assay [7] relates to MDA-N.
Assay [8] deals with OVCAR-4 ovarian.
The test system of assay [9] is NCI/ADR-RES ovarian.
In assay [10] the test system is HL-60(TB) leukemia.

Each structure is given as a SMILES string. Several values for one entry are separate records, joined by “and”; a condition that tells them apart may be missing. Equal values may be shown once.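 Dose response: 5 concentrations. Exposure: 48 h. Format: 96-well plates. Endpoint: linear interpolation; highest concentration if not reached. GI50 is the concentration that inhibits growth by half. At the TGI there is no net growth.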

On to `CC(C)(/C=N/O)/[N+]([O-])=C/c1ccccc1`, for which the TGI in [1], in assay [2], in [3], in assay [4], in [5] and in [6] was over 100 µM throughout. Also, the TGI in assay [7], in assay [8] and in assay [9] was over 100 µM throughout.
Regarding `O=C1CCc2ccccc2O1`, the TGI in [1], in [10], in assay [3], in assay [4], in assay [5] and in assay [7] was over 100 µM throughout. For the same compound, the TGI in [8] and in assay [9] was over 100 µM throughout.
Consider `NC(CS)C(=O)NCCNc1ccc(NCCNC(=O)C(N)CS)c2c1C(=O)c1c(O)ccc(O)c1C2=O` (stereo unspecified), for which the TGI in assay [1] was 0.208 µM and 0.125 µM; in assay [2] it was 1.28 µM and 1.1 µM; in [10] it was 0.0414 µM; in [3], 1.62 µM; in assay [4], 2 µM and 1.81 µM; in assay [5], 0.874 µM and 0.264 µM. Also, the TGI in assay [6] is 0.728 µM and 0.193 µM; in assay [7], 1.68 µM; in [8], 0.847 µM and 0.401 µM; in assay [9], 1.03 µM. Also, the GI50 in assay [4] is 0.43 µM; in assay [5] it was 0.0393 µM; in [8] it was 0.109 µM.
For the compound `COc1cc(O)c2c(=O)c(OC)c(-c3ccc(OC)c(OC)c3)oc2c1.[Sn]`, the TGI in assay [1], in assay [2], in [10], in [3], in [4] and in assay [6] was over 100 µM each time. In addition, the TGI in assay [7], in assay [8] and in assay [9] was over 100 µM throughout. Also, the GI50 in assay [2] was over 100 µM; in assay [3], over 100 µM; in assay [4] it was over 100 µM; in assay [8], 8.24 µM; in assay [9], over 100 µM.
Take `CC1(C)OC2[C@@H](CO[C@@]3([C@H]4OC(C)(C)O[C@@H]4CO)OC(C)(C)O[C@@H]23)O1` (stereo partly specified): the TGI in [1], in [2], in assay [10], in assay [3], in assay [4] and in assay [5] was over 100 µM in each case. The TGI in assay [7], in [8] and in assay [9] was over 100 µM throughout.
Consider `CN(C)C=Nc1c2c(nc3ccccc13)CCCC2`, for which the TGI in assay [2], in assay [10], in assay [3], in assay [4], in assay [6] and in assay [7] was over 100 µM in each case. Also, the TGI in assay [8] and in assay [9] was over 100 µM in each case.
For the compound `Cn1c(=O)oc2cc(C(=S)N3CCCCC3)ccc21`, the TGI in assay [1], in assay [2], in assay [10], in assay [3], in [4] and in assay [5] was over 100 µM each time. For the same compound, the TGI in assay [6], in assay [7] and in assay [9] was over 100 µM in each case.
With `COC(=O)[C@@H](NC(=O)c1ccc(CNC(=O)/C(C)=C/c2ccccc2)cc1)C(C)C`, the TGI in assay [1], in [2], in [3], in assay [4], in [5] and in assay [6] was over 100 µM in each case. The TGI in [7], in [8] and in [9] was over 100 µM in each case.
As to `O=C1C(=O)N(C23CC4CC(CC(C4)C2)C3)C(=S)N1c1ccccc1`, the TGI in assay [1], in [10], in [3], in assay [4], in [5] and in [6] was over 100 µM each time. For the same compound, the TGI in assay [7], in assay [8] and in assay [9] was over 100 µM throughout.
On to `COc1ccccc1[C@@H]1CCC2CC[C@@H](c3ccccc3OC)[N+]21Cc1ccccc1` (stereo partly specified), for which the TGI turned out to be 12 µM in [2]; 4.88 µM in assay [10]; 9.83 µM in assay [3]; 22.3 µM in assay [4]; 7.03 µM in assay [5]; 12.6 µM in assay [7]. Moreover, the TGI in assay [8] is 16.1 µM; in assay [9], 32.3 µM.
For `CC(=O)N1CCN(CCCCN2c3ccccc3Sc3cc(N=[N+]=[N-])ccc32)CC1`, the TGI was found to be 28.1 µM in assay [1]; 27.3 µM in assay [10]; 26.7 µM in [3]; 33.4 µM in [4]; 28.2 µM in assay [5]; 31.8 µM in [6]. The TGI in assay [7] was found to be 30.5 µM; in assay [9], 27.4 µM.
Turning to `CCc1n[nH]c(=O)n1N=C(c1ccccc1)c1ccccc1`, the TGI in assay [1], in [2], in assay [10], in assay [3], in assay [4] and in assay [5] was over 100 µM each time. Moreover, the TGI in assay [7], in [8] and in assay [9] was over 100 µM in each case.
As for `COc1cc2nc3n(c(=O)c2cc1OC)CCCCC3`, the TGI in assay [1], in [2], in [10], in [3], in assay [4] and in assay [5] was over 100 µM each time. The TGI in [7], in assay [8] and in assay [9] was over 100 µM in each case.
On to `C=C(C)[C@@H]1CCC2=C(CC[C@]3(C)[C@@H]([C@@H](CCC=C(C)C)C(=O)O)[C@H](O)C[C@@]23C)[C@@]1(C)CCC(=O)O`, for which the TGI in assay [1], in assay [2], in assay [3], in assay [4], in assay [5] and in [6] was over 100 µM in each case. The TGI in [7], in assay [8] and in assay [9] was over 100 µM in each case.
